Results on 34 compounds are retold here after patent publication US11548894B2, “Benzamide or benzamine compounds useful as anticancer agents for the treatment of human cancers” (The Board of Regents of the University of Texas System, priority 2015, dated 2023).

SMILES strings stand for the structures. Where a name gives a salt, the structure may show the parent alone.

As a reminder, the EC50 is the midpoint of the concentration-response curve.

For the first assay, the system named is Mut6 cells (TD-NSC). The assay can be described thus: luminescence-based Celltiter-Glo cell viability assay (ATP levels) on Mut6 tumor derived neuronal stem cells. Also on record: species or system mouse. The following applies: ATP activity as measure of viability, 96 hours; Hydrochloride; read-out: EC50 (TD-NSC). An excerpt:
A mouse colony with 100% incidence of GBM and with conditional knockout of p53, pTEN and NF1 genes (Mut6; glioblastoma) was used to isolate primary neuronal stem cells from GBM tumors cultured in 5% Oxygen and in serum free media with defined growth factors. Primary cells from multiple tumors were pooled for high throughput screening with controls against the University of Texas Southwestern (UTSW) compound file, which encompasses ˜200,000 synthetic compounds that represent a large chemical space from several commercial vendors, including 1200 marketed drugs from the Prestwick Chemical Library®, and 600 compounds that went to pre-clinical tests from the NIH library.
A luminescence-based Celltiter-Glo® assay was performed to measure cell viability, using ATP levels as the readout. In brief, opaque-walled multiwell plates with Mut6 cells in culture medium (25 μl per well, 384-well plates) were prepared. Control wells containing medium without cells were prepared to obtain a value for background luminescence. Test compounds were added to experimental wells, and incubated according to culture protocol. The plate and its contents were incubated at 37° C., 5% […] for 96 hours. An ATP standard curve was generated immediately prior to adding the CellTiter-Glo® Reagent. A volume of CellTiter-Glo® Reagent equal to the volume of cell culture medium present in each well (25 μl of reagent to 25 μl of medium containing cells for a 384-well plate) was added. The contents were mixed for 2 minutes on an orbital shaker to induce cell lysis. The plate was allowed to incubate at room temperature for 10 minutes to stabilize the luminescent signal and luminescence recorded. (e.g. GloMax®, Lumistar, SPECTROstar, PHERAstar FS).
Compound 4C12 served as initial lead compound for analog development and for additional studies. […] See Wager, T T et al, “Moving beyond rules: the development of a central nervous system multi-parameter-optimization (CNS MPO) approach to enable alignment of drug-like properties,” ACS Chem. Neurosci. 1(6): 435-49 (2010). IC50 curves for the analog compounds plotted as ATP activity (y axis, a measure of viability) vs. concentration (nM) (x-axis) are shown in FIG. 9.
For `CCN1CCCC1CNC(=O)c1ccc(Sc2ccc(F)cc2)c([N+](=O)[O-])c1` (stereo not shown) [DS-1-191, N-((1-ethylpyrrolidin-2-yl)methyl)-4-((4-fluorophenyl)thio)-3-nitrobenzamide Hydrochloride], the EC50 was found to be 95 nM.
Regarding `CCN(CC)CCNC(=O)c1ccc(Sc2ccc(F)cc2)c([N+](=O)[O-])c1` [DS-1-239, N-(2-(diethylamino)ethyl)-4-((4-fluorophenyl)thio)-3-nitrobenzamide Hydrochloride], the EC50 amounted to 59 nM.
Still for that read-out and setting: as for `O=C(NCCN1CCOCC1)c1ccc(Sc2ccc(F)cc2)c([N+](=O)[O-])c1` [DS-1-241, 4-((4-fluorophenyl)thio)-N-(2-morpholinoethyl)-3-nitrobenzamide Hydrochloride], the figure is 44 nM.

Still in this assay, the particulars now being: Mus musculus, 96 h, ATP activity as measure of viability, 96 hours; read-out: EC50 (TD-NSC).
With `O=C(NCc1ccccn1)c1ccc(Sc2ccc(F)cc2)c([N+](=O)[O-])c1` [DS-1-023, 4-((4-fluorophenyl)thio)-3-nitro-N-(pyridin-2-ylmethyl)benzamide], the EC50 was greater than 1000 nM.
`CCN1CCCC1CNC(=O)c1ccc(Sc2ccc(C(F)(F)F)cc2)c([N+](=O)[O-])c1` (stereo not shown) [DS-1-065, N-((1-ethylpyrrolidin-2-yl)methyl)-3-nitro-4-((4-(trifluoromethyl)phenyl)thio)benzamide]: the EC50 turned out to be 86 nM.
Turning to `CCN1CCCC1CNC(=O)c1ccc(Sc2ccc(F)c(F)c2)c([N+](=O)[O-])c1` (stereo not shown) [DS-1-067, 4-((3,4-difluorophenyl)thio)-N-((1-ethylpyrrolidin-2-yl)methyl)-3-nitrobenzamide], the EC50 amounted to 118 nM.
With `CCN1CCCC1CNC(=O)c1ccc(Sc2ccccn2)c([N+](=O)[O-])c1` (stereo not shown) [DS-1-071, N-((1-ethylpyrrolidin-2-yl)methyl)-3-nitro-4-(pyridin-2-ylthio)benzamide], the EC50 came to 419 nM.
Still for that read-out and setting: as for `CCN1CCCC1CNC(=O)c1ccc(Sc2ccccc2F)c([N+](=O)[O-])c1` (stereo not shown) [DS-1-075, N-((1-ethylpyrrolidin-2-yl)methyl)-4-((2-fluorophenyl)thio)-3-nitrobenzamide], the figure is 102 nM.
For `CCN1CCCC1CNC(=O)c1ccc(Sc2ccc(NC(C)=O)cc2)c([N+](=O)[O-])c1` (stereo not shown) [DS-1-077, 4-((4-acetamidophenyl)thio)-N-((1-ethylpyrrolidin-2-yl)methyl)-3-nitrobenzamide], the EC50 was greater than 1000 nM.
Regarding `O=C(NCCN1CCOCC1)c1ccc(Sc2ccc(F)cc2)c([N+](=O)[O-])c1` [DS-1-089, 4-((4-fluorophenyl)thio)-N-(2-morpholinoethyl)-3-nitrobenzamide], the EC50 was found to be 25 nM.
As for `CCN1CCCC1CNC(=O)c1ccc(Oc2ccc(F)cc2)c([N+](=O)[O-])c1` (stereo not shown) [DS-1-103, N-((1-ethylpyrrolidin-2-yl)methyl)-4-(4-fluorophenoxy)-3-nitrobenzamide], the EC50 is 36 nM.
With `CCN1CCCC1CNC(=O)c1ccc(Nc2ccc(F)cc2)c([N+](=O)[O-])c1` (stereo not shown) [DS-1-105, N-((1-ethylpyrrolidin-2-yl)methyl)-4-((4-fluorophenyl)amino)-3-nitrobenzamide], the EC50 was 255 nM.
On the same count and under the same terms, as for `CCN1CCCC1CNC(=O)c1ccc(Sc2ccc(F)cc2)cc1` (stereo not shown) [DS-1-117, N-((1-ethylpyrrolidin-2-yl)methyl)-4-((4-fluorophenyl)thio)benzamide], the figure is 394 nM; as for `CC[N+]1(C)CCCC1CNC(=O)c1ccc(Sc2ccc(F)cc2)c([N+](=O)[O-])c1` (stereo not shown) [DS-1-119, 1-ethyl-2-((4-((4-fluorophenyl)thio)-3-nitrobenzamido)methyl)-1-methylpyrrolidin-1-ium Iodide], greater than 1000 nM.
On to `CCN1CCCC1CNC(=O)c1ccc(Sc2ccc(C(C)C)cc2)c([N+](=O)[O-])c1` (stereo not shown) [DS-1-123, N-((1-ethylpyrrolidin-2-yl)methyl)-4-((4-isopropylphenyl)thio)-3-nitrobenzamide], for which the EC50 worked out at 516 nM.
On to `CCN1CCCC1CNC(=O)c1ccc([S+]([O-])c2ccc(F)cc2)c([N+](=O)[O-])c1` (stereo not shown) [DS-1-135, N-((1-ethylpyrrolidin-2-yl)methyl)-4-((4-fluorophenyl)sulfinyl)-3-nitrobenzamide], for which the half-maximal effective concentration (EC50) is greater than 1000 nM.
On the same count and under the same terms, as for `CCN1CCCC1CNC(=O)c1ccc(SC2CCCCC2)c([N+](=O)[O-])c1` (stereo not shown) [DS-1-139, 4-(cyclohexylthio)-N-((1-ethylpyrrolidin-2-yl)methyl)-3-nitrobenzamide], the figure is 192 nM; as for `CCN1CCCC1CNC(=O)c1ccc(Sc2ccc(N)cc2)c([N+](=O)[O-])c1` (stereo not shown) [DS-1-177, 4-((4-aminophenyl)thio)-N-((1-ethylpyrrolidin-2-yl)methyl)-3-nitrobenzamide], 340 nM.
Same read-out and setting: the same measure for `CCN1CCCC1CNC(=O)c1ccc(Sc2ccc(C(=O)O)cc2)c([N+](=O)[O-])c1` (stereo not shown) [DS-1-179, 4-((4-(((1-ethylpyrrolidin-2-yl)methyl)carbamoyl)-2-nitrophenyl)thio)benzoic Acid Hydrochloride]: greater than 1000 nM.
In the case of `CCN1CCCC1CNC(=O)c1ccc(-c2ccc(F)cc2)c([N+](=O)[O-])c1` (stereo not shown) [DS-1-181, N-((1-ethylpyrrolidin-2-yl)methyl)-4′-fluoro-2-nitro-[1,1′-biphenyl]-4-carboxamide], the EC50 is greater than 1000 nM.
For the compound `CCN1CCCC1CNC(=O)c1ccc(-c2cccc(F)c2)c([N+](=O)[O-])c1` (stereo not shown) [DS-1-183, N-((1-ethylpyrrolidin-2-yl)methyl)-3′-fluoro-2-nitro-[1,1′-biphenyl]-4-carboxamide], the EC50 was greater than 1000 nM.
The same measure, in the same setting: as for `CCN1CCCC1CNC(=O)c1ccc(Sc2ccc(Br)cc2)c([N+](=O)[O-])c1` (stereo not shown) [DS-1-185, 4-((4-bromophenyl)thio)-N-((1-ethylpyrrolidin-2-yl)methyl)-3-nitrobenzamide], the figure is 62 nM; as for `CN(CCN)CCNC(=O)c1ccc(Sc2ccc(F)cc2)c([N+](=O)[O-])c1` [DS-1-195, N-(2-((2-aminoethyl)(methyl)amino)ethyl)-4-((4-fluorophenyl)thio)-3-nitrobenzamide], greater than 1000 nM; as for `CN(CCNC(=O)CCCC[C@@H]1SC[C@@H]2NC(=O)N[C@@H]21)CCNC(=O)c1ccc(Sc2ccc(F)cc2)c([N+](=O)[O-])c1` [DS-1-205], 40000 nM.
Still for that read-out and setting: the same measure for `CCN1CCCC1CNC(=O)c1ccc(Sc2ccc(F)cc2)nc1` (stereo not shown) [DS-1-209, N-((1-ethylpyrrolidin-2-yl)methyl)-6-((4-fluorophenyl)thio)nicotinamide]: greater than 1000 nM; for `CCN1CCCC1CNC(=O)c1ccc(NS(=O)(=O)c2ccc(F)cc2)c([N+](=O)[O-])c1` (stereo not shown) [DS-1-213, N-((1-ethylpyrrolidin-2-yl)methyl)-4-(4-fluorophenylsulfonamido)-3-nitrobenzamide]: greater than 1000 nM; for `CCN1CCCC1CNC(=O)c1ccc(Sc2ccc(O)cc2)c([N+](=O)[O-])c1` (stereo not shown) [DS-1-217, N-((1-ethylpyrrolidin-2-yl)methyl)-4-((4-hydroxyphenyl)thio)-3-nitrobenzamide]: 485 nM.
As to `CCN1CCCC1CNC(=O)c1ccc(Sc2ccc(F)cc2)c(N)c1` (stereo not shown) [DS-1-225, 3-amino-N-((1-ethylpyrrolidin-2-yl)methyl)-4-((4-fluorophenyl)thio)benzamide], the EC50 came to 192 nM.
Still for that read-out and setting: the same measure for `CCN1CCCC1CNC(=O)c1ccc(Sc2ccc(F)cc2)c(C(N)=O)c1` (stereo not shown) [DS-1-231-M, N^1-((1-ethylpyrrolidin-2-yl)methyl)-4-((4-fluorophenyl)thio)isophthalamide]: greater than 1000 nM.
Same read-out and setting: the same measure for `C#CCOc1ccc(Sc2ccc(C(=O)NCC3CCCN3CC)cc2[N+](=O)[O-])cc1` (stereo not shown) [DS-1-261, N-((1-ethylpyrrolidin-2-yl)methyl)-3-nitro-4-((4-(prop-2-yn-1-yloxy)phenyl)thio)benzamide]: 269 nM; for `CCOC(=O)c1cc(F)ccc1Sc1ccc(C(=O)NCC2CCCN2CC)cc1[N+](=O)[O-]` (stereo not shown) [DS-1-265, Ethyl 2-((4-(((1-ethylpyrrolidin-2-yl)methyl)carbamoyl)-2-nitrophenyl)thio)-5-fluorobenzoate]: greater than 1000 nM; for `CCN1CCCC1CNC(=O)c1ccc(Sc2cccc3cccnc23)c([N+](=O)[O-])c1` (stereo not shown) [DS-1-269, N-((1-ethylpyrrolidin-2-yl)methyl)-3-nitro-4-(quinolin-8-ylthio)benzamide]: 535 nM.
The same measure, in the same setting: as for `CCN1CCCC1CNC(=O)c1ccc(Sc2ccc(C)cc2)c([N+](=O)[O-])c1` (stereo not shown) [DS-1-271, N-((1-ethylpyrrolidin-2-yl)methyl)-3-nitro-4-(p-tolylthio)benzamide], the figure is 55 nM.

The same assay, now with this note: Mus musculus; ATP activity as measure of viability, 96 hours; read-out: EC50 (TD-NSC).
`CCN1CCCC1CNC(=O)c1ccc(Sc2ccc([N+](=O)[O-])cc2)c([N+](=O)[O-])c1` (stereo not shown) [DS-1-137, N-((1-ethylpyrrolidin-2-yl)methyl)-3-nitro-4-((4-nitrophenyl)thio)benzamide]: the EC50 is 69 nM.
